From US10323022B2, “Pyrrolidinyl urea, pyrrolidinyl thiourea and pyrrolidinyl guanidine compounds as TrkA kinase inhibitors” (Array BioPharma Inc., priority 2011, dated 2019)

Target: TrkA (Homo sapiens (Human), UniProt P04629)
Assay: TrkA Omnia Assay
Type: biochemical
Conditions: averaged IC50; 20 nM enzyme, 500 μM ATP, 10 μM peptide substrate
How it was run: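 Recombinant TrkA (20 nM) preincubated 10 min at ambient temperature with compound, then Omnia Tyr Peptide #4 (10 μM) and ATP (500 μM) added in 25 mM MOPS pH 7.5, 5 mM MgCl2, 0.005% Triton X-100. Fluorescence (ex 360/em 485 nm) followed continuously for 70 min; IC50 from initial rates by 4- or 5-parameter logistic fit.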

Chain of TrkA (P04629 33-796): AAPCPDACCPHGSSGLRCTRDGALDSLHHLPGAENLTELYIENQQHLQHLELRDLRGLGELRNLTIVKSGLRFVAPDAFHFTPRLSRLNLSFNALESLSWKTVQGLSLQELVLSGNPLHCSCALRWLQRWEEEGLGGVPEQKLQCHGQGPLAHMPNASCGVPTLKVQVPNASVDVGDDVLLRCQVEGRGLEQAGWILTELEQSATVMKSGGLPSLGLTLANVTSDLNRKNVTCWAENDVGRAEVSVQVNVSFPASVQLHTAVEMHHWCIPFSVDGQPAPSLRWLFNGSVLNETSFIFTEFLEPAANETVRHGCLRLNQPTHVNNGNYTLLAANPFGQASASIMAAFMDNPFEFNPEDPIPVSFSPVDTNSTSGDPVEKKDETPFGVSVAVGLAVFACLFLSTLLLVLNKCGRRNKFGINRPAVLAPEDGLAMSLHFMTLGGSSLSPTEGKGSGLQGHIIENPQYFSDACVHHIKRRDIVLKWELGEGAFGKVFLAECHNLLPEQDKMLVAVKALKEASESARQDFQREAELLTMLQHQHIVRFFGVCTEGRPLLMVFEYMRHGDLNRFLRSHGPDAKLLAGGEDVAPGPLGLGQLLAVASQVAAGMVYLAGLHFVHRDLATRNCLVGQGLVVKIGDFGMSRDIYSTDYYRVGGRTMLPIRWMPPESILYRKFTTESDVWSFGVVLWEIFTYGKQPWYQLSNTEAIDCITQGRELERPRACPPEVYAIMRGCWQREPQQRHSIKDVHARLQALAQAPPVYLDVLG

Compound | IC50 [nM]
COCCN1C[C@@H](NC(=O)Nc2c(Br)c(-c3ccccn3)nn2-c2ccccc2)[C@H](c2ccc(F)c(F)c2)C1 [Example 484, 1-(4-bromo-1-phenyl-3-(pyridin-2-yl)-1H-pyrazol-5-yl)-3-((3S,4R)-4-(3,4-difluorophenyl)-1-(2-methoxyethyl)pyrrolidin-3-yl)urea] | < 100
COCCN1C[C@@H](NC(=O)Nc2c(Cl)c(-c3ccccc3)nn2-c2cccnc2)[C@H](c2ccc(F)c(F)c2)C1 [Example 485, 1-(4-chloro-3-phenyl-1-(pyridin-3-yl)-1H-pyrazol-5-yl)-3-((3S,4R)-4-(3,4-difluorophenyl)-1-(2-methoxyethyl)pyrrolidin-3-yl)urea] | 100 to 1000
COCCN1C[C@@H](NC(=O)Nc2c(C)c(-c3cccnc3)nn2-c2ccccc2)[C@H](c2ccc(F)c(F)c2)C1 [Example 486, 1-((3S,4R)-4-(3,4-difluorophenyl)-1-(2-methoxyethyl)pyrrolidin-3-yl)-3-(4-methyl-1-phenyl-3-(pyridin-3-yl)-1H-pyrazol-5-yl)urea] | < 100
COCCN1C[C@@H](NC(=O)Nc2c(C)c(-c3ccncc3)nn2-c2ccccc2)[C@H](c2ccc(F)c(F)c2)C1 [Example 487, 1-((3S,4R)-4-(3,4-difluorophenyl)-1-(2-methoxyethyl)pyrrolidin-3-yl)-3-(4-methyl-1-phenyl-3-(pyridin-4-yl)-1H-pyrazol-5-yl)urea] | < 100
COCCN1C[C@@H](NC(=O)Nc2c(C)c(-c3ccccn3)nn2-c2ccccc2)[C@H](c2ccc(F)c(F)c2)C1 [Example 488, 1-((3S,4R)-4-(3,4-difluorophenyl)-1-(2-methoxyethyl)pyrrolidin-3-yl)-3-(4-methyl-1-phenyl-3-(pyridin-2-yl)-1H-pyrazol-5-yl)urea] | < 100
COCCN1C[C@@H](NC(=O)Nc2c(C)c(-c3cncc(F)c3)nn2-c2ccccc2)[C@H](c2ccc(F)c(F)c2)C1 [Example 489, 1-((3S,4R)-4-(3,4-difluorophenyl)-1-(2-methoxyethyl)pyrrolidin-3-yl)-3-(3-(5-fluoropyridin-3-yl)-4-methyl-1-phenyl-1H-pyrazol-5-yl)urea] | < 100
COCCN1C[C@@H](NC(=O)Nc2c(C)c(-c3cncc(F)c3)nn2-c2cccnc2)[C@H](c2ccc(F)c(F)c2)C1 [Example 490, 1-((3S,4R)-4-(3,4-difluorophenyl)-1-(2-methoxyethyl)pyrrolidin-3-yl)-3-(3-(5-fluoropyridin-3-yl)-4-methyl-1-(pyridin-3-yl)-1H-pyrazol-5-yl)urea] | < 100
COCCN1C[C@@H](NC(=O)Nc2c(C)c(-c3ccn(C)n3)nn2-c2ccccc2)[C@H](c2ccc(F)c(F)c2)C1 [Example 491, 1-((3S,4R)-4-(3,4-difluorophenyl)-1-(2-methoxyethyl)pyrrolidin-3-yl)-3-(1′,4-dimethyl-1-phenyl-1H,1′H-[3,3′-bipyrazol]-5-yl)urea] | < 100
COCCN1C[C@@H](NC(=O)Nc2c(C)c(-c3ccn(C)n3)nn2-c2ccccc2)[C@H](c2ccc(F)cc2)C1 [Example 492, 1-(1′,4-dimethyl-1-phenyl-1H, 1′H-[3,3′-bipyrazol]-5-yl)-3-((3S,4R)-4-(4-fluorophenyl)-1-(2-methoxyethyl)pyrrolidin-3-yl)urea] | < 100
COCCN1C[C@@H](NC(=O)Nc2c(C)c(-c3ccn(C)n3)nn2-c2ccccc2)[C@H](c2cc(F)cc(F)c2)C1 [Example 493, 1-((3S,4R)-4-(3,5-difluorophenyvl)-1-(2-methoxyethyl)pyrrolidin-3-yl)-3-(1′,4-dimethyl-1-phenyl-1H,1′H-[3,3′-bipyrazol]-5-yl)urea] | < 100
COCCN1C[C@@H](NC(=O)Nc2c(C)c(-c3ccnn3C)nn2-c2ccccc2)[C@H](c2ccc(F)c(F)c2)C1 [Example 494, 1-((3S,4R)-4-(3,4-difluorophenyl)-1-(2-methoxyethyl)pyrrolidin-3-yl)-3-(2′,4-dimethyl-1-phenyl-1H,2′H-[3,3′-bipyrazol]-5-yl)urea] | < 100
COCCN1C[C@@H](NC(=O)Nc2c(C)c(-c3cnn(C)c3)nn2-c2cncc(F)c2)[C@H](c2ccc(F)c(F)c2)C1 [Example 495, 1-((3S,4R)-4-(3,4-difluorophenyl)-1-(2-methoxyethyl)pyrrolidin-3-yl)-3-(1-(5-fluoropyridin-3-yl)-1′,4-dimethyl-1H, 1′H-[3,4′-bipyrazol]-5-yl)urea] | < 100
COCCN1C[C@@H](NC(=O)Nc2c(C)c(-c3cnn(C)c3)nn2-c2cncc(C)c2)[C@H](c2ccc(F)c(F)c2)C1 [Example 496, 1-((3S,4R)-4-(3,4-difluorophenyvl)-1-(2-methoxyethyl)pyrrolidin-3-yl)-3-(1′,4-dimethyl-1-(5-methylpyridin-3-yl)-1H, 1′H-[3,4′-bipyrazol]-5-yl)urea] | 100 to 1000
COCCN1C[C@@H](NC(=O)Nc2c(C)c(-c3cnn(C)c3)nn2-c2cncc(Cl)c2)[C@H](c2ccc(F)c(F)c2)C1 [Example 497, 1-(1-(5-chloropyridin-3-yl)-1′,4-dimethyl-1H, 1′H-[3,4′-bipyrazol]-5-yl)-3-((3 S,4R)-4-(3,4-difluorophenyl)-1-(2-methoxyethyl)pyrrolidin-3-yl)urea] | 100 to 1000
COCCN1C[C@@H](NC(=O)Nc2c(C)c(-c3cnn(C(OCC(F)(F)F)C(F)(F)F)c3)nn2-c2ccccc2)[C@H](c2ccc(F)c(F)c2)C1 (stereo partly drawn) [Example 498, 1-((3S,4R)-4-(3,4-difluorophenyvl)-1-(2-methoxyethyl)pyrrolidin-3-yl)-3-(4-methyl-1-phenyl-1′-(2,2,2-trifluoro-1-(2,2,2-trifluoroethoxy)ethyl)-1H,1′H-[3,4′-bipyrazol]-5-yl)urea] | < 100
COCCN1C[C@@H](NC(=O)Nc2c(C)c(-c3cnn(CC(F)(F)F)c3)nn2-c2ccccc2)[C@H](c2ccc(F)c(F)c2)C1 [Example 499, 1-((3S,4R)-4-(3,4-difluorophenyl)-1-(2-methoxyethyl)pyrrolidin-3-yl)-3-(4-methyl-1-phenyl-1′-(2,2,2-trifluoroethyl)-1H, 1′H-[3,4′-bipyrazol]-5-yl)urea] | < 100
COCCN1C[C@@H](NC(=O)Nc2c(C)c(-c3cnn(CC4CC4)c3)nn2-c2ccccc2)[C@H](c2ccc(F)c(F)c2)C1 [Example 500, 1-(1′-(cyclopropylmethyl)-4-methyl-l-phenyl-1H, 1′H-[3,4′-bipyrazol]-5-yl)-3-((3S,4R)-4-(3,4-difluorophenyl)-1-(2-methoxyethyl)pyrrolidin-3-yl)urea] | < 100
COCCN1C[C@@H](NC(=O)Nc2c(C)c(-c3cnn(C(=O)C4CC4)c3)nn2-c2ccccc2)[C@H](c2ccc(F)c(F)c2)C1 [Example 501, 1-(1′-(cyclopropanecarbonyl)-4-methyl-1-phenyl-1H,1′H-[3,4′-bipyrazol]-5-yl)-3-((3S,4R)-4-(3,4-difluorophenyl)-1-(2-methoxyethyl)pyrrolidin-3-yl)urea] | < 100
COCCN1C[C@@H](NC(=O)Nc2c(C)c(-c3cnn(S(C)(=O)=O)c3)nn2-c2ccccc2)[C@H](c2ccc(F)c(F)c2)C1 [Example 502, 1-((3S,4R)-4-(3,4-difluorophenyl)-1-(2-methoxyethyl)pyrrolidin-3-yl)-3-(4-methyl-1′-(methylsulfonyl)-1-phenyl-1H, 1′H-[3,4′-bipyrazol]-5-yl)urea] | < 100
COCCN1C[C@@H](NC(=O)Nc2c(C)c(-c3cnn(C(C)C)c3)nn2-c2ccccc2)[C@H](c2ccc(F)c(F)c2)C1 [Example 503, 1-((3S,4R)-4-(3,4-difluorophenyvl)-1-(2-methoxyethyl)pyrrolidin-3-yl)-3-(1′-isopropyl-4-methyl-1-phenyl-1H, 1′H-[3,4′-bipyrazol]-5-yl)urea] | < 100
COCCN1C[C@@H](NC(=O)Nc2c(C)c(-c3cncnc3)nn2-c2ccccc2)[C@H](c2ccc(F)c(F)c2)C1 [Example 504, 1-((3S,4R)-4-(3,4-difluorophenyl)-1-(2-methoxyethyl)pyrrolidin-3-yl)-3-(4-methyl-1-phenyl-3-(pyrimidin-5-yl)-1H-pyrazol-5-yl)urea] | < 100
COCCN1C[C@@H](NC(=O)Nc2c(C)c(-c3ccn(C)c(=O)c3)nn2-c2ccccc2)[C@H](c2ccc(F)c(F)c2)C1 [Example 505, 1-((3S,4R)-4-(3,4-difluorophenyl)-1-(2-methoxyethyl)pyrrolidin-3-yl)-3-(4-methyl-3-(1-methyl-2-oxo-1,2-dihydropyridin-4-yl)-1-phenyl-1H-pyrazol-5-yl)urea] | < 100
COCCN1C[C@@H](NC(=O)Nc2c(C)c(-c3ccc(=O)n(C)c3)nn2-c2ccccc2)[C@H](c2ccc(F)c(F)c2)C1 [Example 506, 1-((3S,4R)-4-(3,4-difluorophenyl)-1-(2-methoxyethyl)pyrrolidin-3-yl)-3-(4-methyl-3-(1-methyl-6-oxo-1,6-dihydropyridin-3-yl)-1-phenyl-1H-pyrazol-5-yl)urea] | < 100
COCCN1C[C@@H](NC(=O)Nc2c(C)c(-c3cnn(C)c3C)nn2-c2ccccc2)[C@H](c2ccc(F)c(F)c2)C1 [Example 507, 1-((3S,4R)-4-(3,4-difluorophenyl)-1-(2-methoxyethyl)pyrrolidin-3-yl)-3-(1′,4,5′-trimethyl-1-phenyl-1H,1′H-[3,4′-bipyrazol]-5-yl)urea] | < 100
COCCN1C[C@@H](NC(=O)Nc2c(C)c(-c3cn(C)nc3C)nn2-c2ccccc2)[C@H](c2ccc(F)c(F)c2)C1 [Example 508, 1-((3S,4R)-4-(3,4-difluorophenyl)-1-(2-methoxyethyl)pyrrolidin-3-yl)-3-(1′,3′,4-trimethyl-1-phenyl-1H,1′H-[3,4′-bipyrazol]-5-yl)urea] | < 100
COCCN1C[C@@H](NC(=O)Nc2c(C)c(-c3cnn(C4CC4)c3)nn2-c2ccccc2)[C@H](c2ccc(F)c(F)c2)C1 [Example 509, 1-(1′-cyclopropyl-4-methyl-1-phenyl-1H,1′H-[3,4′-bipyrazol]-5-yl)-3-((3S,4R)-4-(3,4-difluorophenyl)-1-(2-methoxyethyl)pyrrolidin-3-yl)urea] | < 100
